Results reported in patent publication US11739098B2 (BRISTOL-MYERS SQUIBB COMPANY, priority 2017, dated 2023).

What was measured:
Type in all cases: cell-based
human TLR7 = molecular target: T1, human TLR7 (Homo sapiens, UniProt Q9NYK1); assay: TLR7 inhibition reporter assay (HEK-Blue cells, SEAP reporter, gardiquimod stimulation); conditions: HEK-Blue cells overexpressing human TLR7, SEAP reporter, gardiquimod 7.5 μM
T1 construct: host or cells: HEK-Blue cells (HEK293-derived reporter line)
T1 sequence (Q9NYK1 27-1049): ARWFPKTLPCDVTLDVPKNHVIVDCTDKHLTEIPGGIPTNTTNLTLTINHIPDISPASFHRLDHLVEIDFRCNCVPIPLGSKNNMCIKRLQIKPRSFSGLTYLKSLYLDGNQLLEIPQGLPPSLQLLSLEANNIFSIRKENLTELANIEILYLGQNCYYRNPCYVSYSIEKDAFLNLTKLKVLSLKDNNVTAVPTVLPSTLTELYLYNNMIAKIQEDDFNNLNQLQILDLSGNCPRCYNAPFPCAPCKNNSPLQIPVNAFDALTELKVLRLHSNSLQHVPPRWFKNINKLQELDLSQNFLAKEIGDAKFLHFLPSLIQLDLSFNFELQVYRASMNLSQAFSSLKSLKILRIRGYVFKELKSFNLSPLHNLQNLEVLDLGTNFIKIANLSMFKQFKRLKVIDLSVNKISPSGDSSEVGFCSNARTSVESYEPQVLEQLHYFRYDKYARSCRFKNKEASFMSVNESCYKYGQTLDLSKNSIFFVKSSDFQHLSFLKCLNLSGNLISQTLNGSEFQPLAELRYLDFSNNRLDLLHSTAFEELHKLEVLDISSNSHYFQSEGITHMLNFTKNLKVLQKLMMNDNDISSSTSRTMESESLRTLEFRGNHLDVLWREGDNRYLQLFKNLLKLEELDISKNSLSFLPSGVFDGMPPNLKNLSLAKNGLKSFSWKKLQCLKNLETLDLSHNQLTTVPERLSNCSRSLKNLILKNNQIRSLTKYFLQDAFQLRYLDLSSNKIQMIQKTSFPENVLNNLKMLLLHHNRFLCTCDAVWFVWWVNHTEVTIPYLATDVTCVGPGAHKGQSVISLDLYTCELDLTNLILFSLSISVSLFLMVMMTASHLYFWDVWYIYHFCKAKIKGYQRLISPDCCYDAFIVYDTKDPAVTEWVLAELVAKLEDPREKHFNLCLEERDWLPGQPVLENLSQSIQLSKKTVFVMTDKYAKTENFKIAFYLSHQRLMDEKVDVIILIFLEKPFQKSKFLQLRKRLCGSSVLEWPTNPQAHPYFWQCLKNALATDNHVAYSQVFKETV
Method in brief: (§1)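 Percent inhibition of agonist-induced SEAP secretion in HEK-Blue cells after 22 h at 37 °C. Stimuli: 7.5 μM gardiquimod, 15.9 μM R848, 5 nM ODN2006 for TLR7, TLR8 and TLR9, added after 30 min compound exposure over a 0.05 nM–50 μM range.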

human TLR9 = molecular target: T2, human TLR9 (Homo sapiens, UniProt Q9NR96); assay: TLR9 inhibition reporter assay (HEK-Blue cells, SEAP reporter, ODN2006 stimulation); conditions: HEK-Blue cells overexpressing human TLR9, SEAP reporter, ODN2006 5 nM
T2 construct: host or cells: HEK-Blue cells (HEK293-derived reporter line)
T2 sequence (Q9NR96 26-1032): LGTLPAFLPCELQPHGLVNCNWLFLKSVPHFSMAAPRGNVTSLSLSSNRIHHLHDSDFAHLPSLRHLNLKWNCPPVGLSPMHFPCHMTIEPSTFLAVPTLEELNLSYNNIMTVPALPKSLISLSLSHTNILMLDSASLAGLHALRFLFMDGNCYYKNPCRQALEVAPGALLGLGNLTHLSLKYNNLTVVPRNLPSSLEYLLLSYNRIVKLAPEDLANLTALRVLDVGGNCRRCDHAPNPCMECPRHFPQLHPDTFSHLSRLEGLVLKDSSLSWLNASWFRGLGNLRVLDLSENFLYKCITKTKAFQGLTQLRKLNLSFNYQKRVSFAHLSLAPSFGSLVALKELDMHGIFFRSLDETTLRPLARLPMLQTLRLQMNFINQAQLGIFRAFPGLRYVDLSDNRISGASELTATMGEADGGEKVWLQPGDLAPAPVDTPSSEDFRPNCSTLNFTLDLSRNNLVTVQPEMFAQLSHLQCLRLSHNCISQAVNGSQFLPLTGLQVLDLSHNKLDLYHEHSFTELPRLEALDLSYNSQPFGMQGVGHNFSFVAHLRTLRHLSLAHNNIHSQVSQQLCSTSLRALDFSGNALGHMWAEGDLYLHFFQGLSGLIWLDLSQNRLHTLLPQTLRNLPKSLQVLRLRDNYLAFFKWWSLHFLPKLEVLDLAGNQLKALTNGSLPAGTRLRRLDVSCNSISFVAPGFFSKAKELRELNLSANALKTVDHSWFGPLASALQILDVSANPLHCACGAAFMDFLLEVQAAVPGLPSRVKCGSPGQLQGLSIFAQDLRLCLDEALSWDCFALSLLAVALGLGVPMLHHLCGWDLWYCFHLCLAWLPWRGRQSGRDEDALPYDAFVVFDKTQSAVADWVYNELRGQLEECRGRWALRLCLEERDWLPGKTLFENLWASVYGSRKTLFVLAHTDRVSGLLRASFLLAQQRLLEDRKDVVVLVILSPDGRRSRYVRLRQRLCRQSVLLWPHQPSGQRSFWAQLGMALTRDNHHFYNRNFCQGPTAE
Method in brief: as §1

human TLR8 = molecular target: T3, human TLR8 (Homo sapiens, UniProt Q9NR97); assay: TLR8 inhibition reporter assay (HEK-Blue cells, SEAP reporter, R848 stimulation); conditions: HEK-Blue cells overexpressing human TLR8, SEAP reporter, R848 15.9 μM
T3 construct: host or cells: HEK-Blue cells (HEK293-derived reporter line)
T3 sequence (Q9NR97 27-1041): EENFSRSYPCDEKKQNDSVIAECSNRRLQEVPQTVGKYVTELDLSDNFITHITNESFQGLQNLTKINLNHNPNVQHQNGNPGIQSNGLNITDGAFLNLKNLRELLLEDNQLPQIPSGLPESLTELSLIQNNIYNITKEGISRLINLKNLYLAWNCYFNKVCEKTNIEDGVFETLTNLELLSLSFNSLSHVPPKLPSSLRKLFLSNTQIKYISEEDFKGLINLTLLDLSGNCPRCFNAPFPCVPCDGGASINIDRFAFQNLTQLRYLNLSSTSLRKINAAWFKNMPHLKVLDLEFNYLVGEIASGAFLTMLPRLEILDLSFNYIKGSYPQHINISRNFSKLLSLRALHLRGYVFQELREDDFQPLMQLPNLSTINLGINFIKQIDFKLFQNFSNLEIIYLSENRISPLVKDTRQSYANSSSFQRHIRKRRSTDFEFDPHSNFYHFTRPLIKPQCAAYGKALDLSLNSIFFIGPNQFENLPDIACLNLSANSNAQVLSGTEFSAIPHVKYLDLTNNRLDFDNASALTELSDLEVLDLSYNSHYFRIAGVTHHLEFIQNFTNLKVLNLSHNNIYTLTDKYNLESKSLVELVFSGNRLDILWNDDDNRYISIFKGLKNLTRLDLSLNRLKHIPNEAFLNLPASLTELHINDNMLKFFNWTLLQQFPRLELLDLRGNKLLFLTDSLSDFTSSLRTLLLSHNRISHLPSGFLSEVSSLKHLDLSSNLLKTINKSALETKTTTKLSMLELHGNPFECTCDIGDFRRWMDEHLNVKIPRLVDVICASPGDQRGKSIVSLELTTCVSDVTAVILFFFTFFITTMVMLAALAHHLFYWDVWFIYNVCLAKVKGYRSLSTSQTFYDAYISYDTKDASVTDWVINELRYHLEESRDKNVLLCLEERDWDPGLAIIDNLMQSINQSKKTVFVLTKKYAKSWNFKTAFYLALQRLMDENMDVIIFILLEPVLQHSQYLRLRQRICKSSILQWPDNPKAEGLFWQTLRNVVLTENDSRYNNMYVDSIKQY
Method in brief: as §1

Compound	IC50 (human TLR7) [nM]	IC50 (human TLR9) [nM]	IC50 (human TLR8) [nM]
CCc1c(-c2ccnc3[nH]ncc23)[nH]c2ccc(C3CCN(C(=O)CN)CC3)cc12 [Example 461, 2-amino-1-(4-(3-ethyl-2-(1H-pyrazolo[3,4-b]pyridin-4-yl)-1H-indol-5-yl)piperidin-1-yl)ethan-1-one]	100 to 1000	1000 to 50000	< 100
Cc1cc(-c2[nH]c3ccc(C4CCN(C(=O)CCN(C)C5CC5)CC4)cc3c2C(C)C)cn2nnnc12 [Example 623, 3-(cyclopropyl(methyl)amino)-1-(4-(3-isopropyl-2-(8-methyltetrazolo[1,5-a]pyridin-6-yl)-1H-indol-5-yl)piperidin-1-yl)propan-1-one]	< 100	1000 to 50000	< 100
CC(C)c1c(-c2ccc(C#N)c3ncccc23)[nH]c2ccc(C3CCN(C(=O)CN(C)C)CC3)cc12 [Example 506, 5-(5-(1-(dimethylglycyl)piperidin-4-yl)-3-isopropyl-1H-indol-2-yl)quinoline-8-carbonitrile]	< 100	1000 to 50000	< 100
Cc1cc(-c2[nH]c3ccc(C4CCN(CC(=O)N(C)C)CC4)cc3c2C(C)C)cc2ncnn12 [Example 324, 2-(4-(3-isopropyl-2-(5-methyl-[1,2,4]triazolo[1,5-a]pyridin-7-yl)-1H-indol-5-yl)piperidin-1-yl)-N,N-dimethylacetamide]	< 100	1000 to 50000	< 100
CC(C)c1c(-c2ccc(C#N)c3ncccc23)[nH]c2ccc(C3CCNCC3)cc12 [Example 109, 5-(3-isopropyl-5-(piperidin-4-yl)-1H-indol-2-yl)quinoline-8-carbonitrile]	< 100	100 to 1000	< 100
Cc1cc(-c2[nH]c3ccc(C4CCN(CC(=O)N(C)C)CC4)cc3c2C(C)C)nc2scnc12 [Example 407, 2-(4-(3-isopropyl-2-(7-methylthiazolo[5,4-b]pyridin-5-yl)-1H-indol-5-yl)piperidin-1-yl)-N,N-dimethylacetamide]	< 100	1000 to 50000	< 100
CCc1c(-c2ccnc3[nH]nc(C)c23)[nH]c2ccc(C3CCN(Cc4cnc[nH]4)CC3)cc12 [Example 873, 4-(5-(1-((1H-imidazol-5-yl)methyl)piperidin-4-yl)-3-ethyl-1H-indol-2-yl)-3-methyl-1H-pyrazolo[3,4-b]pyridine]	< 100	100 to 1000	< 100
CC(C)c1c(-c2cnc3nn(C)cc3c2)[nH]c2ccc(C3CCN(C(=O)CN(C)C)CC3)cc12 [Example 505, 2-(dimethylamino)-1-(4-(3-isopropyl-2-(2-methyl-2H-pyrazolo[3,4-b]pyridin-5-yl)-1H-indol-5-yl)piperidin-1-yl)ethan-1-one]	100 to 1000	1000 to 50000	> 3130
CC(C)c1c(-c2ccc3ncnn3n2)[nH]c2ccc(C3CCN(CC(=O)N(C)C)CC3)cc12 [Example 278, 2-(4-(2-([1,2,4]triazolo[1,5-b]pyridazin-6-yl)-3-isopropyl-1H-indol-5-yl)piperidin-1-yl)-N,N-dimethylacetamide]	< 100	1000 to 50000	< 100
COc1cc(-c2[nH]c3ccc(C4CCNCC4)cc3c2C(C)C)cc2nc(C)nn12 [Example 155, 7-(3-isopropyl-5-(piperidin-4-yl)-1H-indol-2-yl)-5-methoxy-2-methyl-[1,2,4]triazolo [1,5-a]pyridine]	< 100	1000 to 50000	< 100
CC(C)N1CCC(c2ccc3[nH]c(-c4ccc5nccn5c4)c(CC(F)F)c3c2)CC1 [Example 948, 6-(3-(2,2-difluoroethyl)-5-(1-isopropylpiperidin-4-yl)-1H-indol-2-yl)imidazo[1,2-a]pyridine]	< 100	100 to 1000	100 to 1000
CCc1c(-c2ccnc3[nH]ncc23)[nH]c2ccc(C3CCN(CCNC)CC3)cc12 [Example 654, 2-(4-(3-ethyl-2-(1H-pyrazolo[3,4-b]pyridin-4-yl)-1H-indol-5-yl)piperidin-1-yl)-N-methylethan-1-amine]	< 100	100 to 1000	< 100
CCC(C)NCC(=O)N1CCC(c2ccc3[nH]c(-c4ccnc5[nH]ncc45)c(C(C)C)c3c2)CC1 (stereo not drawn) [Example 583, 2-(sec-butylamino)-1-(4-(3-isopropyl-2-(1H-pyrazolo[3,4-b]pyridin-4-yl)-1H-indol-5-yl)piperidin-1-yl)ethan-1-one]	< 100	1000 to 50000	< 100
CC(C)c1c(-c2ccnc3[nH]ncc23)[nH]c2ccc(C3CCN(Cc4c[nH]cn4)CC3)cc12 [Example 870, 4-(5-(1-((1H-imidazol-4-yl)methyl)piperidin-4-yl)-3-isopropyl-1H-indol-2-yl)-1H-pyrazolo[3,4-b]pyridine]	< 100	100 to 1000	< 100
